Test results taken from ChEMBL document CHEMBL1130409, “Hydrazide-containing inhibitors of HIV-1 integrase” (J Med Chem, 1997).

Tests used:
[1] = target: T1, Human immunodeficiency virus type 1 integrase (Human immunodeficiency virus 1, UniProt Q7ZJM1); assay: Inhibition of HIV-1 integrase enzyme by 3'-processing method
[2] = target: T1, Human immunodeficiency virus type 1 integrase; assay: Inhibition of HIV-1 integrase enzyme
[3] = target: T1, Human immunodeficiency virus type 1 integrase; assay: Inhibition of HIV-1 integrase enzyme by 3'-processing method (experiment 1)
[4] = target: T1, Human immunodeficiency virus type 1 integrase; assay: Inhibition of HIV-1 integrase enzyme by 3'-processing method (experiment 2)
[5] = target: T1, Human immunodeficiency virus type 1 integrase; assay: Inhibition of HIV-1 integrase enzyme by integration method (experiment 1)
[6] = target: T1, Human immunodeficiency virus type 1 integrase; assay: Inhibition of HIV-1 integrase enzyme by integration method (experiment 2)
[7] = target: T1, Human immunodeficiency virus type 1 integrase; assay: Inhibition of HIV-1 integrase enzyme by integration method

T1 sequence (Q7ZJM1 whole entry): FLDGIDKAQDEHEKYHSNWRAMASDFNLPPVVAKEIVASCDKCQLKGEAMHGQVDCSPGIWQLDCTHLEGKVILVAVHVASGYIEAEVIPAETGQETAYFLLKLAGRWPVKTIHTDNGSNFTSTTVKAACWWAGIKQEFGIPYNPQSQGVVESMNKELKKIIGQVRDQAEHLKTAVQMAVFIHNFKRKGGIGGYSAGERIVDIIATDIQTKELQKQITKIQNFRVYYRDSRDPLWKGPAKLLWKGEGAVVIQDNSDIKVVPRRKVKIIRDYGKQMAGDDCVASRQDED

SMILES	IC50 [1] [µM]	IC50 [2] [µM]	further results
O=C(NNC(=O)c1cc2ccccc2cc1O)c1ccccc1O	2.3	1.1	
O=C(N/N=C/c1ccccc1O)c1ccccc1O	> 100	> 100	
Nc1ccccc1C(=O)NNC(=O)c1ccccc1O	> 100	> 100	
NNC(=O)c1ccccc1N	> 100	> 100	
O=C(NNC(=O)c1ccccc1O)c1ccccc1	> 100	> 100	
NNC(=O)c1ccccc1S			IC50 [3]: 70 µM; IC50 [4]: 79.6 µM; IC50 [5]: 57.5 µM; IC50 [6]: 50 µM
O=C(NNC(=O)c1ccccc1O)c1ccccc1O	2.07	0.73	
CC(=O)NNC(=O)c1ccccc1O	> 100	> 100	
NC(=O)c1ccccc1O [SALICYLAMIDE]	> 100	> 100	
Nc1ccccc1C(=O)NNC(=O)c1ccccc1N	> 100	> 100	
O=C(NNC(=O)c1ccccc1)c1ccccc1	> 100	> 100	
O=C(NNCc1ccccc1O)c1ccccc1O	6.7	5.2	
O=C(NNC(=O)c1ccccn1)c1ccccn1	> 100	> 100	
O=C(NNC(=O)c1ccccc1S)c1ccccc1O	9.1	5.8	
NN(CC(O)COc1ccccc1)C(=O)c1ccccc1O (stereo not given)	> 200	> 200	
O=C(NNCC(O)COc1ccccc1)c1ccccc1O (stereo not given)	> 200		IC50 [7]: > 200 µM
O=C(NCCCNC(=O)c1ccccc1O)c1ccccc1O	> 200	> 200	
NNC(=O)c1ccccc1O			IC50 [3]: 46 µM; IC50 [4]: 114 µM; IC50 [5]: 33 µM; IC50 [6]: 43 µM
